Data on 102 compounds can be found in PubChem BioAssay AID1996.

In brackets after ≈: the same amount, converted by molar mass.

For the data set the following is noted: buffer; pH 7.4; 200.0 µM.
As usually defined, the kinetic solubility is solubility judged after dilution from a stock solution rather than from solid. In the case of `COC(=O)C(Cc1ccccc1)NC(=O)CCNC(=O)c1ccco1` (configuration not stated), the solubility (kinetic) was over 51.7 µg/mL.

For `Cc1nc(SCC(=O)NC2CC2)c2c(C)c(C)sc2n1`, the solubility (kinetic) came out at 11.6 µg/mL (≈ 37.7 µM). Next, `Cc1cc(C)c2c(n1)sc1c(=O)n(Cc3ccc(F)cc3)cnc12`: under 0.2 µg/mL; `O=C(CNC(=O)c1ccc(=O)[nH]c1)Nc1ccc(F)c(F)c1`: over 46.1 µg/mL; `CC(C)C(=O)NC(c1ccc(Cl)cc1Cl)c1ccc2cccnc2c1O` (configuration not stated): 2.8 µg/mL (≈ 7.19 µM). Next, `CCN1CCCC1CNC(=O)c1cc2cc(F)ccc2[nH]1` (configuration not stated): over 43.4 µg/mL. Next, `CCOC(=O)C1CCN(C(=O)/C=C/c2ccc(S(=O)(=O)N3CCOCC3)cc2)CC1`: over 65.5 µg/mL. With `CCCCN1C(=O)N(C)C2NC(=S)NC21` (configuration not stated), the solubility (kinetic) was over 34.2 µg/mL. As for `COc1ccc(NC(=O)CCn2ccnc2)c(OC)c1`, the figure is 41.1 µg/mL (≈ 149 µM); as for `CC(NC(=O)c1ccc([N+](=O)[O-])o1)C1CC2CCC1C2` (configuration not stated), over 41.7 µg/mL.

`CC(C)(C)N(Cc1ccccc1)C(=O)CN1C(=O)c2ccccc2S1(=O)=O` returned a kinetic solubility of 15.7 µg/mL (≈ 40.6 µM). As for `Cc1ccccc1NC(=O)CON=C(N)c1ccccc1`, the figure is over 42.5 µg/mL; as for `COc1ccc(NC(=O)O/N=C/c2ccccc2Cl)cc1`, 17.7 µg/mL (≈ 58.1 µM); as for `CSc1ccc(/C=N/S(=O)(=O)c2ccccc2)cc1`, over 43.7 µg/mL.

In turn, `CCCCCNCc1ccc(Cl)cc1` came in with a solubility (kinetic) of 12.4 µg/mL (≈ 58.6 µM). For the compound `Nc1nc(NCc2ccccc2)nc(NCCO)c1[N+](=O)[O-]`, the solubility (kinetic) turned out to be 43.4 µg/mL (≈ 143 µM). Next, `COc1ccc(C(C)(C)C)cc1NC(=O)c1ccc[n+]([O-])c1`: over 45.1 µg/mL; `CSc1ccc(S(=O)(=O)NC2CC3CCC2C3)cc1` (configuration not stated): 29.7 µg/mL (≈ 99.9 µM).

`COc1cc(C(C)=O)ccc1OCC(=O)NC(=O)Nc1ccc(C)cc1C` returned a solubility (kinetic) of 14.1 µg/mL (≈ 38.1 µM). As to `CC(C)(C)OC(=O)N1Cc2[nH]c3ccccc3c2C[C@@H]1C(=O)O`, the kinetic solubility is over 47.5 µg/mL.

`Cc1ccc(NC(=O)C2CC2c2ccccc2)c([N+](=O)[O-])c1` (configuration not stated) registered a kinetic solubility of 3.5 µg/mL (≈ 11.8 µM). In turn, `CCOc1ccc(OCCn2c(=S)[nH]c3c(N)ncnc32)cc1` had a solubility (kinetic) of 20.1 µg/mL (≈ 60.7 µM). As for `O=C(Cc1csc(-c2ccccc2)n1)NCC(=O)Nc1ccc(F)c(F)c1F`, the figure is 9 µg/mL (≈ 22.2 µM). As for `O=C1CSC(c2ccccc2)N1Cc1ccccn1` (configuration not stated), the figure is over 40.6 µg/mL. As for `CN1CCN(c2ccccc2NC(=O)c2cccs2)CC1`, the figure is over 45.2 µg/mL. Compound `CC(=O)c1cccc(NC(=O)c2cc(-c3ccco3)on2)c1` came in with a kinetic solubility of 2.1 µg/mL (≈ 7.09 µM). Next, `CCCC(CCC)C(=O)Nc1cccc(-c2cn3c(n2)SCC3)c1`: 4 µg/mL (≈ 11.6 µM); `O=C(O)CC(CC(=O)N1CCN(C(=O)c2ccco2)CC1)c1ccccc1` (configuration not stated): over 55.6 µg/mL.

`Cc1ccc2[nH]c3c(c2c1)CN(C(=O)CN1CCCCC1)CC3` came in with a kinetic solubility of 41.8 µg/mL (≈ 134 µM).

`Cc1c(N)cc[n+](CC(=O)c2ccccc2)c1C.[Br-]` registered a solubility (kinetic) of over 48.2 µg/mL.

In turn, `CCOc1ccc2nc(SCC(=O)NC3CC3)sc2c1` registered a kinetic solubility of 13.1 µg/mL (≈ 42.5 µM).

In the case of `CC(C)C(=O)O/N=C(\N)c1ccc(Oc2ccc(Cl)cc2)c([N+](=O)[O-])c1`, the kinetic solubility stood at 3.5 µg/mL (≈ 9.26 µM).

`CC(=O)Nc1ccc(NC(=O)c2c(-c3ccccc3)noc2C)cn1` displayed a kinetic solubility of 11.1 µg/mL (≈ 33 µM). As for `COC(=O)C1SCCN1S(=O)(=O)c1ccc(Cl)cc1` (configuration not stated), the figure is over 48.3 µg/mL; as for `O=C(COC(=O)CCC(=O)c1cccs1)NCc1cccs1`, over 50.6 µg/mL. Next, `CC(=O)N1CCN(c2ccccc2NC(=O)c2ccco2)CC1`: over 47 µg/mL; `O=C(NCc1ccco1)/C(=C\C=C\c1ccccc1)NC(=O)c1ccco1`: over 54.4 µg/mL.

Take `COc1cccc(NC(=O)c2ccc3c(c2)OCCO3)c1`: the solubility (kinetic) is over 42.8 µg/mL.

`O=C(NC(=S)Nc1ccc2c(c1)OCCO2)c1ccco1`: the solubility (kinetic) worked out at 40.3 µg/mL (≈ 132 µM).

Compound `COc1cccc(NC(=O)c2cc3ccccc3oc2=O)c1` returned a solubility (kinetic) of under 0.6 µg/mL. Next, `CC(C)[C@H](NC(=O)c1ccccc1)C(=O)OCC(=O)c1c(N)n(C)c(=O)n(C)c1=O`: over 62.5 µg/mL; `COC(=O)c1ccc(COC(=O)CNC(=O)c2ccc(OC)cc2)cc1`: 17.3 µg/mL (≈ 48.4 µM).

Take `N#CCCN(Cc1ccccc1)C(=O)Nc1ccc2c(c1)CCO2`: the solubility (kinetic) was 21.7 µg/mL (≈ 67.5 µM). Next, `CC(C)c1ccc2nc(N)sc2c1`: 28.3 µg/mL (≈ 147 µM). As for `CC(=O)N1CCN(CC(C)(C)NS(=O)(=O)c2ccc(C)cc2)CC1`, the figure is 46.6 µg/mL (≈ 132 µM). As for `Cc1cccc(NC(=S)N2CCCCC2c2cccnc2)c1C` (configuration not stated), the figure is over 48.8 µg/mL; as for `COC(=O)c1ccsc1NC(=O)c1cccc(OC)c1`, 1.4 µg/mL (≈ 4.81 µM); as for `O=C(NCc1ccccc1)c1c(O)c2ccccc2[nH]c1=O`, under 0.3 µg/mL. Consider `CC(C)OC(=O)c1cc2c(=O)[nH]c(C(Cl)(Cl)Cl)nc2o1`, for which the kinetic solubility turned out to be 47.6 µg/mL (≈ 140 µM). As for `NC(=O)C1Cc2ccccc2CN1S(=O)(=O)c1cccs1` (configuration not stated), the figure is over 48.4 µg/mL; as for `CC(NC(=O)c1ccc(F)cc1)C1CC2CCC1C2` (configuration not stated), 6.9 µg/mL (≈ 26.4 µM); as for `CCc1ccccc1NC(=S)N(CCc1ccncc1)C(C)C`, 44 µg/mL (≈ 134 µM).

`COc1ccc2[nH]c3c(=O)n(CCN4CCOCC4)cnc3c2c1` had a solubility (kinetic) of over 49.3 µg/mL. Next, `CCOC(=O)c1c(/N=C/c2ccc(OC)cc2O)sc2c1CCN(C)C2`: 37 µg/mL (≈ 98.8 µM); `COc1ccc2c(c1)c(C(=O)O)c(C)n2CCc1ccc(OC)c(OC)c1`: over 55.4 µg/mL; `CCCCOc1ccc(C(=O)Oc2cccnc2)cc1`: 1.5 µg/mL (≈ 5.53 µM). As for `CCC(=NCCN1CCOCC1)c1c(O)n(C2CCCCC2)c(=O)[nH]c1=O`, the figure is 52.6 µg/mL (≈ 139 µM). Next, `COc1cc(C)c(S(=O)(=O)N2CCOCC2)c(C)c1C`: over 44.9 µg/mL; `O=C(Nc1ccc(Cl)cc1)Nc1ccc(-c2cnco2)cc1`: 0.7 µg/mL (≈ 2.23 µM). Regarding `O=C(NN=Cc1cc(Br)c(O)c(Br)c1)c1ccccc1NS(=O)(=O)c1cccs1`, the kinetic solubility was over 83.9 µg/mL.

In turn, `N#Cc1c(N2C(=O)c3ccc(C(=O)O)cc3C2=O)sc2c1CCCC2` displayed a kinetic solubility of over 52.9 µg/mL. As for `N/C(CSc1ccccn1)=N\OCc1c(Cl)cccc1Cl`, the figure is 29 µg/mL (≈ 84.7 µM). With `CCCN(CC(=O)Nc1ccccc1OC)C(=O)c1nc2nc(C)ccn2n1`, the kinetic solubility was over 57.4 µg/mL. With `CCOc1ccc(NC(=O)CN2CCc3ccccc3C2)cc1`, the kinetic solubility was determined as 34 µg/mL (≈ 110 µM).

As to `Cc1nc(S/C(C(=O)O)=C2/C(=O)Nc3ccccc32)n[nH]1`, the kinetic solubility is over 45.3 µg/mL. For `CCCC(=O)Nc1c(C(=O)OCC)oc2ccccc12`, the kinetic solubility is over 41.3 µg/mL.

`O=c1[nH]cnc(O)c1C(c1cccc([N+](=O)[O-])c1)c1c(O)nc[nH]c1=O` registered a kinetic solubility of over 53.6 µg/mL. As for `CC1=C(C)CC(C(=O)NC2CCN(C(C)C)CC2)C(C(=O)O)C1` (configuration not stated), the figure is over 48.4 µg/mL; as for `Cc1ccc(C(=O)NCC(=O)N2CCCCCCC2)cc1`, 42.3 µg/mL (≈ 147 µM); as for `COc1ccc(NC(=O)COC(=O)c2cc(S(=O)(=O)N3CCCC3)ccc2O)cc1`, over 65.2 µg/mL. Next, `CC(=O)N(C1=NCCCS1)c1ccc(Cl)cc1`: 32.8 µg/mL (≈ 122 µM); `COc1ccc2nc(N(Cc3ccccc3)C(=O)CCNC(C)=O)sc2c1`: 3.3 µg/mL (≈ 8.61 µM). As for `CC(C)Cn1c(=O)[nH]c(=O)c2c(C(F)(F)F)cc(-c3ccccc3)nc21`, the figure is under 0.3 µg/mL; as for `NC(=O)c1cccnc1OCC(F)(F)F`, over 33 µg/mL. For `CCOc1ccc(NC(=O)CN(C)C(=O)c2ccncc2)cc1OCC`, the kinetic solubility is over 53.6 µg/mL. As for `COc1ccc(/C(N)=N/OC(=O)CCC2CCCC2)cc1`, the figure is 4.2 µg/mL (≈ 14.5 µM); as for `CC1CN(CCc2ccccc2)c2nc3c(c(=O)n(C)c(=O)n3C)n2C1` (configuration not stated), 41.7 µg/mL (≈ 118 µM). As for `O=C(c1c(F)cccc1F)N(Cc1ccccc1)Cc1ccccc1`, the figure is 8.4 µg/mL (≈ 24.9 µM); as for `CC(C)Oc1ccc(/C=C/C(=O)NCC2COc3ccccc3O2)cc1` (configuration not stated), 2.8 µg/mL (≈ 7.92 µM); as for `CCOc1ccc(NCCC(O)c2ccc(F)cc2)cc1` (configuration not stated), 30.9 µg/mL (≈ 107 µM). As to `Cc1cc(C)c(OCC(=O)Nc2cc(C(=O)O)cc(C(=O)O)c2)cc1C`, the kinetic solubility was over 53.6 µg/mL. Next, `Cc1[nH]c2ccc(C(=O)NC3CCCC3)cc2c1C`: over 38.5 µg/mL; `CC(C)(C)c1ccc(Oc2ccc(NC(=O)c3ccco3)cn2)cc1`: under 0.4 µg/mL; `Clc1ccc(CNc2ccccn2)cc1`: 25.8 µg/mL (≈ 118 µM). As for `CSc1ncccc1C(=O)OCC(=O)NCCCc1ccccc1`, the figure is 20.6 µg/mL (≈ 59.8 µM). As for `O=C(CCNC(=O)c1ccco1)Nc1ccccc1`, the figure is over 38.7 µg/mL; as for `COc1cccc(OC)c1C(=O)Nc1sc2c(c1C(N)=O)CCCC2`, 25 µg/mL (≈ 69.4 µM). In the case of `CNc1nc(=S)[nH]c2ccccc12`, the solubility (kinetic) is over 28.7 µg/mL. Next, `CCN1CCN(C(C)CCc2ccccc2)CC1` (configuration not stated): 30.6 µg/mL (≈ 124 µM).

In turn, `Clc1ccc(CN2CCSCC2)cc1Cl` came in with a solubility (kinetic) of 2.6 µg/mL (≈ 9.92 µM). For the compound `Cc1ccnc(N/C=C/C(=O)c2ccc(Br)cc2)c1`, the kinetic solubility is under 0.3 µg/mL. Next, `O=S(=O)(NC1C2CC3CC(C2)CC1C3)c1ccccc1` (configuration not stated): 23.4 µg/mL (≈ 80.3 µM); `O=C(CN1C(=O)NC2(CCc3ccccc32)C1=O)Nc1cccc(Cl)c1` (configuration not stated): 54.2 µg/mL (≈ 147 µM).

For the compound `Cc1ccc(NC(=O)CCN2CCOCC2)cc1C`, the solubility (kinetic) was over 39.4 µg/mL. Next, `O=C(CNC(=O)c1ccco1)NCc1ccc2c(c1)OCO2`: 34.6 µg/mL (≈ 114 µM); `NC(=O)CCSC(=S)N1CCOCC1`: over 35.1 µg/mL. Next, `O=C(COc1ccc2ccc(=O)oc2c1)NCc1ccccn1`: over 46.5 µg/mL; `C#CCOn1c(-n2nc(C)cc2C)nc2ccccc2c1=O`: over 44.1 µg/mL; `Cc1ccccc1NC(=O)c1cc2ccccc2o1`: 33.7 µg/mL (≈ 134 µM). As for `CCCN1CN=C(NS(=O)(=O)c2ccc(C)cc2)NC1`, the solubility (kinetic) was over 44.5 µg/mL. For the compound `COCc1cc(=O)[nH]c(N2CCN(c3ccccc3OC)CC2)n1`, the kinetic solubility is 46.3 µg/mL (≈ 140 µM).

The compound `N#CC1(NC(=O)COC(=O)/C=C/c2ccc3ccccc3n2)CCCCC1` had a solubility (kinetic) of 3 µg/mL (≈ 8.25 µM).
